Where a name gives a salt, the structure may show the parent alone.

Series [1] is described as follows: Plasma levels in dogs after intranasal versus oral dosing. The class given is in vivo. How it is done:
The effectiveness of the intranasal formulations of the present invention were evaluated in dogs. Four fasted dogs were lightly anaesthetised, each received 5 mg of the cGMP-PDE5 inhibitor in both nostrils. The drug was administered both as a powder and as a solution. Plasma levels of the active agent were measured and compared with plasma levels obtained when the dogs were previously orally dosed with the agent.
Thus a solution dose of 0.7 mg/kg of sildenafil mesylate administered by the intranasal route to four dogs gave a mean peak blood plasma levels of 407 ng/ml after a period of 5 minutes.

The nature of series [2]: Aqueous solubility of sildenafil mesylate. The class given is physicochemical. Particulars: no solubility enhancing agent. How it is done: Preferred as solubility enhancing agents are caffeine (preferably at a concentration of from 1.0 to 2.5% weight/vol); nicotinamide (preferably 3.0 to 20.0% weight/vol); vanillin (preferably 0.5 to 2.5% weight/vol); and benzyl alcohol (preferably 0.5 to 2.5% weight/vol). A combination of nicotinamide and vanillin is also preferred. By using such solubility enhancing agents, it is possible to increase the solubility of sildenafil mesylate in water from approximately 60 mg/ml to in excess of 100 mg/ml. This allows a more concentrated solution to be administered facilitating a rapid onset of action and reducing irritancy. One particular and preferred formulation comprises sildenafil mesylate 100 mg/ml and caffeine 15 mg/ml in a buffered aqueous solution. The pH of the solution is preferably adjusted to pH 3-5, preferably to pH 4.2 by the addition of a base e.g. sodium hydroxide.

A short description of series [3]: Plasma levels in human volunteers after intranasal administration. The format is in vivo. The conditions noted are these: man.
The mark [4] stands for this setting: four dogs, intranasal route, solution dose 0.7 mg/kg.

On to `CCCc1nn(C)c2c(=O)[nH]c(-c3cc(S(=O)(=O)N4CCN(C)CC4)ccc3OCC)nc12` [sildenafil citrate, reference compound], for which, in series [1] (dog, in vivo, po, 1.4 mg/kg), the “mean peak blood plasma level” value stood at 204 ng/mL and the “time of mean peak blood plasma level” value stood at 136 min.

With “5-[2-ethoxy-5-(4-methylpiperazin-1-ylsulphonyl)phenyl]-1,6-dihydro-1-methyl-3-propylpyrazolo[4,3-d]pyrimidin-7-one)methanesulphonate salt [sildenafil mesylate]”, the “blood plasma levels after intranasal versus oral administration” value in series [1] (dogs, intranasal powder and solution, 5 mg in both nostrils, compared with oral dosing) is given as “particularly effective”. Further, in series [1] (setting [4]), the “mean peak blood plasma level” value was determined as 407 ng/mL and the “time of mean peak blood plasma level” value was 5 min. Moreover, in series [2], the solubility in water result was “approximately 60 mg/ml”. In series [3], the “blood plasma levels of sildenafil versus oral dosing” value is given as “comparable with oral dosing” and the “time of peak blood plasma levels after administration” value lay in the range of 5 to 15 min.

Values taken from patent US20020040139A1, “INTRANASAL FORMULATIONS FOR TREATING SEXUAL DISORDERS” (priority 1998, published 2002).
